Measurements taken from patent US11692194B2, “Modulating expression of polypeptides via new gene switch expression systems” (Precigen, Inc., priority 2017, dated 2023).

Legend:
[1] = system: gene switch controlled mbIL-15 expression in CD19-specific CAR T cells; assay: Flow cytometry of mbIL-15 expression, veledimex ON-OFF-ON, SB gene switch CD19 CAR-T cells; format: cell-based, human
Experimental: Various DNA plasmids expressing a SB transposon system, i.e. SB11, membrane bound IL-15 (mbIL-15), and chimeric antigen receptor (CAR), were transfected to peripheral blood mononuclear cells (PBMC) via nucleofection to redirect T cell specificity (FIG. 1).
On day 0, 20 million PBMC were resuspended in 100 μL of Amaxa Human T cell Nucleofector solution (Cat. no. VPA-1002; Lonza, Basel, Switzerland) mixed with a total of 15 μg of transposons and 5 μg of transposase (SB11) and electroporated.
The following day (day 1) cells were counted, and CAR expression was measured by flow cytometry. CAR T Cells were stimulated with either γ-irradiated (100 Gy) or mitomycin C treated AaPCs at a 1:1 ratio. The AaPC cells used were K562-AaPC expressing CD19 antigen. Cultures were supplemented with IL-21 (30 ng/ml) only for the first round of stimulation and subsequently with recombinant human IL-2 (50 IU/ml) and IL-21 (30 ng/ml) (Pepro Tech) for remaining stimulations. T cell cultures were phenotyped at the end of each stimulation cycle, which typically lasted 7 days. The cultures were phenotyped for CAR expression by multi-parameter flow cytometry utilizing either Protein L or anti-idiotype antibody that recognizes CD19-specific CAR. Cultures were also closely monitored for the outgrowth of NK cells (defined as CD3negCD56+ population) and were removed from the CAR T cell cultures when the percentage exceeded 10% of total cell populations using magnetic beads for specific for CD56 (Stem Cell Technologies and/or Miltenyi Biotec), according to the manufacturer's instructions.
CD19-specific T cells were generated from mononuclear cells (MNC) derived from PB or UCB using SB transposition to introduce the CAR followed by addition of AaPC to numerically expand the T cells in a CAR-dependent manner.
For flow cytometry analysis to assess expression of various markers and gene(s) of interest, cells were gently resuspended and cell number, and viability were measured using Trypan blue exclusion method with the Countess instrument. Cell diameter size was also recorded. 5×10^5 cells for each for the samples were harvested at 330×g for 4 min at 10° C. for antibody staining. Harvested cells were incubated on ice for at least 15 min with 10% human AB serum in HBSS. Antibody cocktails containing fluorescently conjugated antibodies included one or more of antibodies specific to CD4 (Clone RPA-T4), CD8 (Clone SK1), CD3 (Clone UCHT1), CD56, CD19-specific CAR (anti-idiotype antibody), IL-15, and IL-15Rα, in HBSS+0.1% BSA+2 mM EDTA. The prepared antibody cocktails and associated fluorescence minus one/isotype control were added to stain the cell samples, and then the samples were incubated on ice for 30 min. The samples were then washed then with FACS buffer (HBSS+0.5% BSA+2 mM EDTA) and stained with Fixable Viability Dye (eBiosciences) for 30 min on ice. Cells were washed with FACS buffer and then fixed with a 4% paraformaldehyde solution (BD Cytofix; BD Biosciences). All samples were run on a LSR II flow cytometer, a Fortessa X-20 flow cytometer (BD Biosciences) or iQue Screener Plus (Intellicyt) and data was analyzed using FlowJo V10 (TreeStar, Ashland, Oreg.) or iQue Screener software.
For induction of expression using ligand (veledimex), AaPC stimulated CAR-T cells were harvested at 1×10^6 cells/ml. Either veledimex or DMSO (to keep DMSO concentration constant in both cultures) was added to the cultures. Veledimex was used at a concentration of 20 nM, 50 nM, 100 nM or as described. Cells were then cultured at 37° C. in presence of veledimex or DMSO for 2-3 days. After 2-3 days in culture, 5×10^5 cells for each for the samples were harvested at 330×g for 4 min at 10° C. for antibody staining. Harvested cells were incubated on ice for at least 15 min with 10% human AB serum in HBSS. […]

[2] = system: RTS-IL-12 in EGFRvIII-CAR T cells; assay: Veledimex dose-response of IL-12, ELISA; format: cell-based
Experimental: EGFRvIII-CAR T cells with or without RTS-IL-12 were expanded ex vi by three successive rounds of stimulation with EGFRvIII^+ AaPCs. T cells were then treated with varying doses of veledimex from 0 nM (DMSO control) to 100 nM. At 48 h post veledimex treatment, culture supernatants were harvested analyzed for IL-12 levels by ELISA. EGFRvIII-CAR expression in all groups was confirmed with flow cytometry and was stable with increasing doses of veledimex (data not shown) as expected with CAR expression under control of a constitutive promoter.

**Q.** With CCC[C@@H](N(NC(=O)c1cccc(OC)c1CC)C(=O)c1cc(C)cc(C)c1)C(C)(C)C [veledimex, N-[(1R)-1-(1,1-dimethylethyl)butyl]-N′-(2-ethyl-3-methoxybenzoyl)-3,5-dimethylbenzohydrazide] as the compound, how does the “mbIL-15 expression versus veledimex concentration” value ([1]; 2 day incubation at 100, 25, 6.25, 1.56, 0.4 and 0 nM, gated FSC/SSC/LIVE/CD3+) read?
**A.** dose response

**Q.** What about the “expression of mbIL-15 post ligand addition” value ([1]; day 29 post nucleofection, gated on CD19-specific CAR positive populations) of the same compound?
**A.** turned on

**Q.** What about the “expression of mbIL-15 post ligand withdrawal” value ([1]; day 35 post nucleofection, gated on CD19-specific CAR positive populations) of the same compound?
**A.** turned off

**Q.** What about the “expression of mbIL-15 after re-introduction of ligand” value (from here on “expression … of ligand”) ([1]; day 40 post nucleofection, gated on CD19-specific CAR positive populations) of the same compound?
**A.** maintained

**Q.** And the “expression … of ligand” value ([1]; day 48 post nucleofection, gated on CD19-specific CAR positive populations)?
**A.** continuously maintained

**Q.** What about the “expression … of ligand” value ([1]; day 50 post nucleofection, gated on CD19-specific CAR positive populations) of the same compound?
**A.** continuously maintained

**Q.** What about the “IL-12 production versus veledimex dose” value ([2]; 0 nM to 100 nM, 48 h post treatment) of the same compound?
**A.** dose dependent

**Q.** What about the “EGFRvIII-CAR expression with increasing doses of veledimex” value ([2]; flow cytometry, data not shown) of the same compound?
**A.** stable
